Laboratory results from US11566007B2, “Ras inhibitors” (Revolution Medicines, Inc., priority 2019, dated 2023).

Legend:
[1] = tested on: NCI-H358 cells (K-Ras G12C); assay: Potency assay: pERK in NCI-H358 cells; type: cell-based, human; settings: Homo sapiens, NCI-H358; H358 KRAS G12C; read-out: pERK EC50
Summary of the method: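 Inhibition of cellular pERK after a 4 h treatment, detected by AlphaLISA or In-Cell Western. IC50 from a four-parameter concentration-response fit.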

NCI-H358 (K-Ras G12C) = assay: CellTiter-Glo cell viability assay, NCI-H358; type: cell-based, human; settings: Homo sapiens, NCI-H358, 120 h, NCI-H358, 5-day treatment; class symbols; read-out: Additional H358 Cell Viability assay data (K-Ras G12C, IC50)
Summary of the method: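 Compounds were dispensed directly onto K-Ras mutant cells and incubated until day 5, then plates were equilibrated to room temperature for about 30 minutes before CellTiter-Glo luminescence. Signals were normalized as (sample/average DMSO)*100 and fitted by four-parameter logistic fit.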

K-Ras G12C = K-Ras G12C (Homo sapiens (Human), UniProt P01116+P62937, G12C); assay: Ras-Raf (BRAF RBD) disruption / FRET / MOA assay, KRAS G12C; type: biochemical; settings: KRAS G12C; Ras-Raf disruption/FRET/MOA assay; read-out: IC50* KRAS G12C FRET data
Summary of the method: (§1)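 A 10-point, 3-fold dilution series topping at 30 μM final was incubated 3 h at 25° C with the Ras/cyclophilin A/BRAF RBD mixture.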

K-Ras G13C = K-Ras G13C (Homo sapiens (Human), UniProt P01116+P62937, G13C); assay: Ras-Raf (BRAF RBD) disruption / FRET / MOA assay, KRAS G13C; type: biochemical; settings: KRAS G13C; Ras-Raf disruption/FRET/MOA assay; read-out: IC50* KRAS G13C FRET data
Summary of the method: as §1

KRAS G12S = KRAS G12S (Homo sapiens (Human), UniProt P01116+P62937, G12S); assay: Ras-Raf (BRAF RBD) disruption / FRET / MOA assay, KRAS G12S; type: biochemical; settings: Ras-Raf disruption/FRET/MOA assay; class symbols; read-out: KRAS G12S FRET data IC50
Summary of the method: as §1

KRAS G12D = KRAS G12D (Homo sapiens (Human), UniProt P01116+P62937, G12D); assay: Ras-Raf (BRAF RBD) disruption / FRET / MOA assay, KRAS G12D; type: biochemical; settings: Ras-Raf disruption/FRET/MOA assay; class symbols; read-out: KRAS G12D FRET data IC50
Summary of the method: as §1

KRAS G12V = KRAS G12V (Homo sapiens (Human), UniProt P01116+P62937, G12V); assay: Ras-Raf (BRAF RBD) disruption / FRET / MOA assay, KRAS G12V; type: biochemical; settings: read-out: IC50* KRAS G12V FRET data
Summary of the method: as §1

KRAS WT = KRAS WT (Homo sapiens (Human), UniProt P01116+P62937); assay: Ras-Raf (BRAF RBD) disruption / FRET / MOA assay, KRAS WT; type: biochemical; settings: read-out: IC50* KRAS WT FRET data
Summary of the method: as §1

KRAS G13D = KRAS G13D (Homo sapiens (Human), UniProt P01116+P62937, G13D); assay: Ras-Raf (BRAF RBD) disruption / FRET / MOA assay, KRAS G13D; type: biochemical; settings: read-out: IC50* KRAS G13D FRET data
Summary of the method: as §1

NRAS G12C = NRAS G12C (Homo sapiens (Human), UniProt P01111+P62937, G12C); assay: Ras-Raf (BRAF RBD) disruption / FRET / MOA assay, NRAS G12C; type: biochemical; settings: read-out: IC50* NRAS G12C FRET data
Summary of the method: as §1

Sequence of NRAS G12C (P01111 whole entry G12C): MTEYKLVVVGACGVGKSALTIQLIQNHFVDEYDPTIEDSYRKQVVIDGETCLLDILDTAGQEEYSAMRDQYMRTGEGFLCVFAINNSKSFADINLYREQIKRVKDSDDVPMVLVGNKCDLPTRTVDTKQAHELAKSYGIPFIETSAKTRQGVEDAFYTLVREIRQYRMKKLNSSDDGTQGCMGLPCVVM
Sequence of NRAS G12C (P62937 whole entry): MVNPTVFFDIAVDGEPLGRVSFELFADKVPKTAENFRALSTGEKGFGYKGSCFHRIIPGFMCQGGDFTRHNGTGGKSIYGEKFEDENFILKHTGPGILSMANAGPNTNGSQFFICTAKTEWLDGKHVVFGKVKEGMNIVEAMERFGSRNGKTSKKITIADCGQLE
Sequence of K-Ras G12C (P01116-2 other isoform, or with tags, fused parts or gaps G12C): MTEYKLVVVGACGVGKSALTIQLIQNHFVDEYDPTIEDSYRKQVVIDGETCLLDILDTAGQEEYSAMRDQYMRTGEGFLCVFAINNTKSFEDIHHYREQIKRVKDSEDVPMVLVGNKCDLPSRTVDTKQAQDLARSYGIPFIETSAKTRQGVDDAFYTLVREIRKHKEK
Sequence of K-Ras G12C (P62937 whole entry): as the sequence (P62937 whole entry) above
Sequence of KRAS G13D (P01116-2 other isoform, or with tags, fused parts or gaps G13D): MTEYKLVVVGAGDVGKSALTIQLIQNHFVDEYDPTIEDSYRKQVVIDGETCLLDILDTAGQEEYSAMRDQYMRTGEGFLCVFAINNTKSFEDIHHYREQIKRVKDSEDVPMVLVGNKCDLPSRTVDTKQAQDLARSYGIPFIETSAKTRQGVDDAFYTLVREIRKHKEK
Sequence of KRAS G13D (P62937 whole entry): as the sequence (P62937 whole entry) above
Sequence of K-Ras G13C (P01116-2 other isoform, or with tags, fused parts or gaps G13C): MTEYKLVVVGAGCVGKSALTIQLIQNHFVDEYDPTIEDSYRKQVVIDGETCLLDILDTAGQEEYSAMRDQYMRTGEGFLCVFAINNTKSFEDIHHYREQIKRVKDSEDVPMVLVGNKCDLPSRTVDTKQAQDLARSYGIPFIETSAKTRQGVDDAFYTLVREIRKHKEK
Sequence of K-Ras G13C (P62937 whole entry): as the sequence (P62937 whole entry) above
Sequence of KRAS G12V (P01116-2 other isoform, or with tags, fused parts or gaps G12V): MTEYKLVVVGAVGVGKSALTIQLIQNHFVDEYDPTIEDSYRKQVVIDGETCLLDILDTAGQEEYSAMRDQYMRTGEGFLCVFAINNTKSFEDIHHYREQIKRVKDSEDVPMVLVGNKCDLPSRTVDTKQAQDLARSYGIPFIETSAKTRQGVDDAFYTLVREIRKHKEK
Sequence of KRAS G12V (P62937 whole entry): as the sequence (P62937 whole entry) above
Sequence of KRAS WT (P01116-2 other isoform, or with tags, fused parts or gaps): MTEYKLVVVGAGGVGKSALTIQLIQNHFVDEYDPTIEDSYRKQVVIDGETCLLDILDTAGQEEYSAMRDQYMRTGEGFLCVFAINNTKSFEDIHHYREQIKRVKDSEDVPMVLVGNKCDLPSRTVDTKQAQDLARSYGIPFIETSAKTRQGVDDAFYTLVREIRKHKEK
Sequence of KRAS WT (P62937 whole entry): as the sequence (P62937 whole entry) above
Sequence of KRAS G12S (P01116-2 other isoform, or with tags, fused parts or gaps G12S): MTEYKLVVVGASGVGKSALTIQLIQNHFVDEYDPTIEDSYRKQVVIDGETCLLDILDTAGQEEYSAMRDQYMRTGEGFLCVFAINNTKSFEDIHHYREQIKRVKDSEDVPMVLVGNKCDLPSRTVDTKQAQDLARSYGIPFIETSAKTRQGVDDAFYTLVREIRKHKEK
Sequence of KRAS G12S (P62937 whole entry): as the sequence (P62937 whole entry) above
Sequence of KRAS G12D (P01116-2 other isoform, or with tags, fused parts or gaps G12D): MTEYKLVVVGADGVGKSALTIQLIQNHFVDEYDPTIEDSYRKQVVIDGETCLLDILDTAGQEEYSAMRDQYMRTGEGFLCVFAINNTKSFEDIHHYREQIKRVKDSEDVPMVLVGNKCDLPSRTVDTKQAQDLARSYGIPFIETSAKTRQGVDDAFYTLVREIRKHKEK
Sequence of KRAS G12D (P62937 whole entry): as the sequence (P62937 whole entry) above

Structure (SMILES) | EC50 [1] | IC50 (NCI-H358 (K-Ras G12C)) | IC50 (K-Ras G12C) | IC50 (K-Ras G13C) | IC50 (KRAS G12S) | IC50 (KRAS G12D) | IC50 (KRAS G12V) | IC50 (KRAS WT) | IC50 (KRAS G13D) | IC50 (NRAS G12C)
C=CC(=O)N1CC(N(C)C(=O)N(C)[C@H](C(=O)N[C@H]2Cc3nc(cs3)-c3ccc4c(c3)c(c(-c3cccnc3[C@H](C)OC)n4CC)CC(C)(C)COC(=O)[C@@H]3CCCN(N3)C2=O)C(C)C)C1 (atropisomer, axis not shown) [Example A435] | < 5000 nM | < 10 nM | 10 to 100 nM | 100 to 1000 nM | 100 to 1000 nM | 1000 to 10000 nM | 100 to 1000 nM | 100 to 1000 nM | 1000 to 10000 nM | < 10 nM
C=CC(=O)N1CCCN(C(=O)N(C)[C@H](C(=O)N[C@H]2Cc3nc(cs3)-c3ccc4c(c3)c(c(-c3cccnc3[C@H](C)OC)n4CC)CC(C)(C)COC(=O)[C@@H]3CCCN(N3)C2=O)C(C)C)CC1 (atropisomer, axis not shown) [Example A436] | < 5000 nM | 10 to 100 nM | 10 to 100 nM | 100 to 1000 nM | 100 to 1000 nM | 100 to 1000 nM | 100 to 1000 nM | 10 to 100 nM | 100 to 1000 nM | 10 to 100 nM
C=CC(=O)NCCN(C)C(=O)N(C)[C@H](C(=O)N[C@H]1Cc2nc(cs2)-c2ccc3c(c2)c(c(-c2cccnc2[C@H](C)OC)n3CC)CC(C)(C)COC(=O)[C@@H]2CCCN(N2)C1=O)C(C)C (atropisomer, axis not shown) [Example A438] | < 5000 nM | 10 to 100 nM | 10 to 100 nM | 10 to 100 nM | 100 to 1000 nM | 1000 to 10000 nM | 100 to 1000 nM | 100 to 1000 nM | 100 to 1000 nM | 10 to 100 nM
CCn1c(-c2cccnc2[C@H](C)OC)c2c3cc(ccc31)-c1nc(cs1)C[C@H](NC(=O)[C@H](C1CCCC1)N(C)C(=O)[C@H]1CCN(C(=O)C#CC(C)(C)N3CCC3)C1)C(=O)N1CCC[C@H](N1)C(=O)OCC(C)(C)C2 (atropisomer, axis not shown) [Example A439] | < 5000 nM | < 10 nM | 10 to 100 nM | 100 to 1000 nM | 1000 to 10000 nM | > 10000 nM | 1000 to 10000 nM | 1000 to 10000 nM | 1000 to 10000 nM | 10 to 100 nM
CCn1c(-c2cccnc2[C@H](C)OC)c2c3cc(ccc31)-c1nc(cs1)C[C@H](NC(=O)[C@H](C(C)C)N(C)C(=O)[C@H]1CCN(C(=O)C#CC(C)(C)N3CCC3)C1)C(=O)N1CCC[C@H](N1)C(=O)OCC(C)(C)C2 (atropisomer, axis not shown) [Example A440] | < 5000 nM | < 10 nM | 10 to 100 nM | 100 to 1000 nM | 1000 to 10000 nM | 1000 to 10000 nM | 1000 to 10000 nM | 1000 to 10000 nM | 1000 to 10000 nM | 10 to 100 nM
C=CC(=O)N1CC[C@H](C(=O)N(C)[C@H](C(=O)N[C@H]2Cc3cc(C(F)F)cc(n3)-c3ccc4c(c3)c(c(-c3cccnc3[C@H](C)OC)n4CC)CC(C)(C)COC(=O)[C@@H]3CCCN(N3)C2=O)C(C)C)C1 (atropisomer, axis not shown) [Example A441] | < 5000 nM | 10 to 100 nM | 1000 to 10000 nM | 1000 to 10000 nM | > 10000 nM | > 10000 nM | > 10000 nM | > 10000 nM | > 10000 nM | 1000 to 10000 nM
C=CC(=O)N1CC[C@](C#N)(C(=O)N(C)[C@H](C(=O)N[C@H]2Cc3cccc(c3)-c3ccc4c(c3)c(c(-c3cccnc3[C@H](C)OC)n4CC)CC(C)(C)COC(=O)[C@@H]3CCCN(N3)C2=O)C(C)C)C1 (atropisomer, axis not shown) [Example A443] | < 5000 nM | < 10 nM | 10 to 100 nM | 100 to 1000 nM | 100 to 1000 nM | 1000 to 10000 nM | 100 to 1000 nM | 1000 to 10000 nM | 1000 to 10000 nM | 10 to 100 nM
C=CC(=O)N1CC[C@@](C#N)(C(=O)N(C)[C@H](C(=O)N[C@H]2Cc3cccc(c3)-c3ccc4c(c3)c(c(-c3cccnc3[C@H](C)OC)n4CC)CC(C)(C)COC(=O)[C@@H]3CCCN(N3)C2=O)C(C)C)C1 (atropisomer, axis not shown) [Example A444] | < 5000 nM | < 10 nM | 10 to 100 nM | 100 to 1000 nM | 1000 to 10000 nM | 1000 to 10000 nM | 100 to 1000 nM | 1000 to 10000 nM | 1000 to 10000 nM | 10 to 100 nM
C=CC(=O)N1CC(OC(=O)N(C)[C@H](C(=O)N[C@H]2Cc3cccc(c3)-c3ccc4c(c3)c(c(-c3cccnc3[C@H](C)OC)n4CC)CC(C)(C)COC(=O)[C@@H]3CCCN(N3)C2=O)C(C)C)C1 (atropisomer, axis not shown) [Example A445] | < 5000 nM | < 10 nM | 10 to 100 nM | 100 to 1000 nM | 1000 to 10000 nM | > 10000 nM | 1000 to 10000 nM | 1000 to 10000 nM | 1000 to 10000 nM | 10 to 100 nM
C=CC(=O)N1CC[C@H](C(=O)N(C)[C@H](C(=O)N[C@H]2Cc3cccc(c3)-c3ccc4c(c3)c(c(-c3cc5c(nc3[C@H](C)OC)CN(C)CC5)n4CC)CC(C)(C)COC(=O)[C@@H]3CCCN(N3)C2=O)C(C)C)C1 (atropisomer, axis not shown) [Example A446] | < 5000 nM | < 10 nM | 100 to 1000 nM | 1000 to 10000 nM | 1000 to 10000 nM | > 10000 nM | 1000 to 10000 nM | 1000 to 10000 nM | 1000 to 10000 nM | 100 to 1000 nM
CCn1c(-c2cccnc2[C@H](C)OC)c2c3cc(ccc31)-c1cccc(c1)C[C@H](NC(=O)CCOC1CN(C(=O)C#CC(C)(C)N(C)C)C1)C(=O)N1CCC[C@H](N1)C(=O)OCC(C)(C)C2 (atropisomer, axis not shown) [Example A448] | < 5000 nM | 10 to 100 nM | 10 to 100 nM | > 10000 nM | > 10000 nM | > 10000 nM | > 10000 nM | > 10000 nM | > 10000 nM | 10 to 100 nM
C=CC(=O)N1C[C@H](C(=O)N(C)[C@H](C(=O)N[C@H]2Cc3cccc(c3)-c3ccc4c(c3)c(c(-c3cccnc3[C@H](C)OC)n4CC)CC(C)(C)COC(=O)[C@@H]3CCCN(N3)C2=O)C(C)C)[C@@H](C)C1 (atropisomer, axis not shown) [Example A451] | < 5000 nM | 10 to 100 nM | 100 to 1000 nM | 100 to 1000 nM | 1000 to 10000 nM | 1000 to 10000 nM | 1000 to 10000 nM | 1000 to 10000 nM | 1000 to 10000 nM | 100 to 1000 nM
